# Measured values reported in patent US20240116985A1, “STAPLED PEPTIDES AND METHODS THEREOF” (priority 2020, published 2024).
# Where two headings read alike, the source gives them in different places.
# Legend:
# [1] = target: T1, full-length beta-Catenin (Uniprot ID P35222) (Homo sapiens, UniProt P35222); experiment: Fluorescence polarization IC50 (beta-catenin / 5FAM-TCF4 10-53 competition); type: binding; conditions: fluorescence polarization; read-out: beta-Catenin FP IC50
# T1 construct: 10 nM full-length beta-Catenin (Uniprot ID P35222)
# T1 sequence (P35222 1-781): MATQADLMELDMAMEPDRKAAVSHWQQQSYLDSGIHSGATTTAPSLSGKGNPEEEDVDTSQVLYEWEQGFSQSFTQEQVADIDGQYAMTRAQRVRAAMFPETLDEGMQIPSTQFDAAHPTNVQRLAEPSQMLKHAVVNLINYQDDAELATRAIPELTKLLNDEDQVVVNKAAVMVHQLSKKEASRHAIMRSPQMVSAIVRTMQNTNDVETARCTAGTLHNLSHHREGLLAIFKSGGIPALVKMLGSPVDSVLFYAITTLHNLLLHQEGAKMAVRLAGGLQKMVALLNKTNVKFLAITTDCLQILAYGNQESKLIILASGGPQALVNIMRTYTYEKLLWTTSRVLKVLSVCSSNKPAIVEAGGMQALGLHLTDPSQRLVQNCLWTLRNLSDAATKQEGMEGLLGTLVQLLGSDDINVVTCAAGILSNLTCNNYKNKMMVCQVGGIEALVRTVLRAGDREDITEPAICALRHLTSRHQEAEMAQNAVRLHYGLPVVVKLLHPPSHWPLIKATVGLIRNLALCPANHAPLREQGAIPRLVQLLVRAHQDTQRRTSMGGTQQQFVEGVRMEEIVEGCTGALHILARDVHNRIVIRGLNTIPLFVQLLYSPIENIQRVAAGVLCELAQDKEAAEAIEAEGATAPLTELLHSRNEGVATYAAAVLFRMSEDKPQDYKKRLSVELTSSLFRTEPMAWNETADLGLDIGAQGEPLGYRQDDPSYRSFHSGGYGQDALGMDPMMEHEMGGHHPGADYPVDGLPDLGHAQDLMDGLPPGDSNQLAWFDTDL
# [2] = target: T2, beta-catenin/TCF4 engagement (Homo sapiens, UniProt P35222); experiment: Nano-BRET target engagement assay (B-cat-Halo & TCF4-Luc in HEK293 cells); type: cell-based; conditions: read-out: NanoBRET Abs IC50
# T2 construct: expressed in transfected cells; host or cells: HEK293
# T2 sequence (P35222 1-781): T1 sequence (P35222 1-781)
Compound,IC50 [1],IC50 ([2]; absolute IC50),IC50 [2]
"CCCCCCSSCCOC(=O)C[C@@H]1NC(=O)[C@H](CC(=O)O)NC(=O)C2(CCCC=CCCCOC(=O)N3CC[C@@](C(=O)N[C@@H](Cc4ccsc4)C(=O)N[C@@H](Cc4csc5ccccc45)C(=O)N[C@@H](CCC(N)=O)C(N)=O)(C3)NC(=O)[C@H](CC(C)C)NC(=O)[C@H](Cc3ccccc3)NC(=O)[C@H](C)NC(=O)[C@H](C)NC1=O)CCCC=CC[C@]1(CCCN1C(C)=O)C(=O)N[C@@H](CC(=O)O)C(=O)N[C@@H](CC(C)(C)C)C(=O)N2 (stereo partly drawn) [I-1962, Ac-PL3-Asp-Npg-B5-Asp-[EtSSHex]AspE-Ala-Ala-Phe-Leu-PyrS2-3Thi-BztA-Gln-NH2]",1.6 µM,–,> 20 µM
"CC(=O)N1CCC[C@]12CC=CCCCC1(CCCC=CCCCOC(=O)N3CC[C@@](C(=O)N[C@@H](Cc4ccccc4)C(=O)N[C@@H](Cc4csc5ccccc45)C(=O)N[C@@H](CCO)C(N)=O)(C3)NC(=O)[C@H](CC(N)=O)NC(=O)[C@H](Cc3ccccc3)NC(=O)[C@H](C)NC(=O)[C@H](CCCCNC(C)C)NC(=O)[C@H](CCC(N)=O)NC(=O)[C@H](CC(=O)O)NC1=O)NC(=O)[C@H](CC1CCCCC1)NC(=O)[C@H](CC(N)=O)NC2=O (stereo partly drawn) [I-2167, Ac-PL3-Asn-Cha-B5-Asp-Gln-iPrLys-Ala-Phe-Asn-PyrS2-Phe-BztA-Hse-NH2]",0.199 µM,–,> 20 µM
"CC(=O)N1CCC[C@]12CC=CCCCC1(CCCC=CCCCOC(=O)N3CC[C@@](C(=O)N[C@@H](Cc4ccccc4Cl)C(=O)N[C@@H](Cc4csc5ccccc45)C(=O)N[C@@H](CO)C(N)=O)(C3)NC(=O)[C@H](C(C)C)NC(=O)[C@H](Cc3ccccc3)NC(=O)[C@H](C)NC(=O)[C@H](C)NC(=O)[C@H](Cc3cccc(C(=O)O)c3)NC(=O)[C@H](CC(=O)O)NC1=O)NC(=O)[C@H](CC(C)(C)C)NC(=O)[C@H](CC(=O)O)NC2=O (stereo partly drawn) [I-1850, Ac-PL3-Asp-Npg-B5-Asp-3COOHF-Ala-Ala-Phe-Val-PyrS2-2C1F-BztA-Ser-NH2]",0.017 µM,–,3.8 µM
"CC(=O)N1CCC[C@]12CC=CCCCC1(CCCC=CCCCOC(=O)N3CC[C@@](C(=O)N[C@@H](Cc4ccsc4)C(=O)N[C@@H](Cc4csc5ccccc45)C(=O)N[C@@H](CCC(N)=O)C(N)=O)(C3)NC(=O)[C@H](Cn3cc(CN4CCNCC4)nn3)NC(=O)[C@H](Cc3ccccc3)NC(=O)[C@H](C)NC(=O)[C@H](C)NC(=O)[C@H](CN(CC(=O)O)CC(F)(F)F)NC(=O)[C@H](CC(=O)O)NC1=O)NC(=O)[C@H](CC(C)(C)C)NC(=O)[C@H](CC(=O)O)NC2=O (stereo partly drawn) [I-1864, Ac-PL3-Asp-Npg-B5-Asp-TfeGA-Ala-Ala-Phe-[CH2Ppz]TriAzDap-PyrS2-3Thi-BztA-Gln-NH2]",0.014 µM,–,> 20 µM
"CC(=O)N1CCC[C@]12CC=CCCCC1(CCCC=CCCCOC(=O)N3CC[C@@](C(=O)N[C@@H](Cc4ccsc4)C(=O)N[C@@H](Cc4csc5ccccc45)C(=O)N[C@H](CO)[C@@H](C)O)(C3)NC(=O)[C@H](CC(C)C)NC(=O)[C@H](Cc3ccccc3)NC(=O)[C@H](C)NC(=O)[C@H](C)NC(=O)[C@H](Cc3ccccc3C(=O)O)NC(=O)[C@H](CC(=O)O)NC1=O)NC(=O)[C@H](CC(C)(C)C)NC(=O)[C@H](CC(=O)O)NC2=O (single isomer, unassigned) [I-1670, Ac-PL3-Asp-Npg-B5-Asp-2COOHF-Ala-Ala-Phe-Leu-PyrS2-3Thi-BztA-Thro1]",0.011 µM,7.9 µM,–
"CC(=O)N1CCC[C@]12CC=CCCCC1(CCCC=CCCCOC(=O)N3CC[C@@](C(=O)N[C@@H](Cc4ccsc4)C(=O)N[C@@H](Cc4csc5ccccc45)C(=O)N[C@@H](CCC(N)=O)C(N)=O)(C3)NC(=O)[C@H](CC(N)=O)NC(=O)[C@H](Cc3ccccc3)NC(=O)[C@H](C)NC(=O)[C@H](C)NC(=O)[C@H](Cc3c(F)c(F)c(F)c(F)c3F)NC(=O)[C@H](CC(=O)O)NC1=O)NC(=O)[C@H](CC(C)(C)C)NC(=O)[C@H](CC(=O)O)NC2=O (stereo partly drawn) [I-1790, Ac-PL3-Asp-Npg-B5-Asp-Pff-Ala-Ala-Phe-Asn-PyrS2-3Thi-BztA-Gln-NH2]",0.082 µM,34.4 µM,–
"CC(=O)N1CCC[C@]12CC=CCCCC1(CCCC=CCCCOC(=O)N3CC[C@@](C(=O)N[C@@H](Cc4ccsc4)C(=O)N[C@@H](Cc4csc5ccccc45)C(=O)N[C@@H](CCC(N)=O)C(N)=O)(C3)NC(=O)[C@H](CC(C)C)NC(=O)[C@H](Cc3ccccc3)NC(=O)[C@H](C)NC(=O)[C@H](C)NC(=O)[C@H](CCN(CC(=O)O)C(=O)CCCN(C)C)NC(=O)[C@H](CC(=O)O)NC1=O)NC(=O)[C@H](CC(C)(C)C)NC(=O)[C@H](CC(=O)O)NC2=O (stereo partly drawn) [I-2243, Ac-PL3-Asp-Npg-B5-Asp-[NdiMeButC]GAbu-Ala-Ala-Phe-Leu-PyrS2-3Thi-BztA-Gln-NH2]",0.015 µM,25.2 µM,–

# The next lines start with the values.
IC50 [1],IC50 ([2]; absolute IC50),IC50 [2],Compound
0.01 µM,12.8 µM,–,"CC(=O)N1CCC[C@]12CC=CCCCC1(CCCC=CCCCOC(=O)N3CC[C@@](C(=O)N[C@@H](Cc4ccsc4)C(=O)N[C@@H](Cc4csc5ccccc45)C(=O)N[C@@H](CCC(N)=O)C(N)=O)(C3)NC(=O)[C@H](CC(C)C)NC(=O)[C@H](Cc3ccccc3)NC(=O)[C@H](C)NC(=O)[C@H](C)NC(=O)[C@H](CC(=O)O)NC(=O)[C@H](CC(=O)O)NC1=O)NC(=O)[C@H](CC1CCCCC1)NC(=O)[C@H](CC(=O)O)NC2=O (stereo partly drawn) [I-1519, Ac-PL3-Asp-Cha-B5-Asp-Asp-Ala-Ala-Phe-Leu-PyrS2-3Thi-BztA-Gln-NH2]"
0.057 µM,> 20 µM,–,"CC(=O)N1CCC[C@]12CC=CCCCC1(CCCC=CCCCOC(=O)N3CC[C@@](C(=O)N[C@@H](Cc4ccsc4)C(=O)N[C@@H](Cc4csc5ccccc45)C(=O)N[C@@H](CC(C)C)C(N)=O)(C3)NC(=O)[C@H](CC(C)C)NC(=O)[C@H](Cc3ccccc3)NC(=O)[C@H](C)NC(=O)[C@H](CCCCNC(C)C)NC(=O)[C@H](CN(CC(=O)O)CC(F)(F)F)NC(=O)[C@H](CC(=O)O)NC1=O)NC(=O)[C@H](CC(C)(C)C)NC(=O)[C@H](CC(=O)O)NC2=O (stereo partly drawn) [I-1759, Ac-PL3-Asp-Npg-B5-Asp-TfeGA-iPrLys-Ala-Phe-Leu-PyrS2-3Thi-BztA-Leu-NH2]"
0.016 µM,–,14.5 µM,"CC(=O)N1CCC[C@]12CC=CCCCC1(CCCC=CCCCOC(=O)N3CC[C@@](C(=O)N[C@@H](Cc4ccccc4Cl)C(=O)N[C@@H](Cc4csc5ccccc45)C(=O)N[C@@H](CC(N)=O)C(N)=O)(C3)NC(=O)[C@H](C)NC(=O)[C@H](Cc3ccccc3)NC(=O)[C@H](C)NC(=O)[C@H](C)NC(=O)[C@H](Cc3cccc(C(=O)O)c3)NC(=O)[C@H](CC(=O)O)NC1=O)NC(=O)[C@H](CC(C)(C)C)NC(=O)[C@H](CC(=O)O)NC2=O (stereo partly drawn) [I-2035, Ac-PL3-Asp-Npg-B5-Asp-3COOHF-Ala-Ala-Phe-Ala-PyrS2-2C1F-BztA-Asn-NH2]"
0.122 µM,> 20 µM,–,"CC(=O)N1CCC[C@]12CC=CCCCC1(CCCC=CCCCOC(=O)N3CC[C@@](C(=O)N[C@@H](Cc4ccsc4)C(=O)N[C@@H](Cc4csc5ccccc45)C(=O)N[C@@H](CCC(N)=O)C(N)=O)(C3)NC(=O)[C@H](CC(N)=O)NC(=O)[C@H](Cc3ccccc3)NC(=O)[C@H](C)NC(=O)[C@H](C)NC(=O)[C@H]([C@@H](C)O)NC(=O)[C@H](CC(N)=O)NC1=O)NC(=O)[C@H](CC(C)(C)C)NC(=O)[C@H](CC(=O)O)NC2=O (stereo partly drawn) [I-1564, Ac-PL3-Asp-Npg-B5-Asn-Thr-Ala-Ala-Phe-Asn-PyrS2-3Thi-BztA-Gln-NH2]"
0.043 µM,> 20 µM,–,"CC(=O)N1CCC[C@]12CC=CCCCC1(CCCC=CCCCOC(=O)N3CC[C@@](C(=O)N[C@@H](Cc4ccccc4Cl)C(=O)N[C@@H](Cc4csc5ccccc45)C(=O)N[C@@H](CCC(N)=O)C(N)=O)(C3)NC(=O)[C@H](CC(N)=O)NC(=O)[C@H](Cc3ccccc3)NC(=O)[C@H](C)NC(=O)[C@H](C)NC(=O)[C@H](CNCCC(F)(F)F)NC(=O)[C@H](CC(=O)O)NC1=O)NC(=O)[C@H](CC(C)(C)C)NC(=O)[C@H](CC(=O)O)NC2=O (stereo partly drawn) [I-1457, Ac-PL3-Asp-Npg-B5-Asp-[Tfp]Dap-Ala-Ala-Phe-Asn-PyrS2-2C1F-BztA-Gln-NH2]"
0.108 µM,11.4 µM,–,"CC(=O)N1CCC[C@]12CC=CCCCC1(CCCC=CCCCOC(=O)N3CC[C@@](C(=O)N[C@@H](Cc4ccccc4C(F)(F)F)C(=O)N[C@@H](Cc4csc5ccccc45)C(=O)N[C@@H](CO)C(N)=O)(C3)NC(=O)[C@H](Cc3ccccc3)NC(=O)[C@H](Cc3ccccc3)NC(=O)[C@H](C)NC(=O)[C@H](C)NC(=O)[C@H](Cc3ccccc3C(=O)O)NC(=O)[C@H](CC(=O)O)NC1=O)NC(=O)[C@H](CC(C)(C)C)NC(=O)[C@H](CC(=O)O)NC2=O (stereo partly drawn) [I-1659, Ac-PL3-Asp-Npg-B5-Asp-2COOHF-Ala-Ala-Phe-Phe-PyrS2-2F3MeF-BztA-Ser-NH2]"
